Measured values taken from patent US5747500A, “Antiviral 2, 4-pyrimidinedione derivatives” (priority 1993, dated 1998).
In brackets after ≈: the same amount, converted by molar mass.

Columns and labels:
HIV = assay: inhibition of HIV-induced cytopathic effect in MT-4 cells (MTT method); format: cell-based; settings: for EC50: Human immunodeficiency virus 1, MT4, HIV-infected MT-4 cells, 1000 CCID50, 4 or 5 day incubation at 37° C., MTT method, read-out: ED50: Effective concentration for the inhibition of the proliferation of HIV by 50%; for S.I.: Selectivity index (CD50/ED50): ratio CD50/ED50, MT-4 cells
Experimental: The anti-HIV assays were based on the inhibition of the virus-induced cytopathic effect in MT-4 cells as described in J. Virol. Methods, 16, 171 (1987). Briefly, MT-4 cells were suspended in culture medium at 2.5×10^5 cells/ml and infected with 1000 CCID50 (50% cell culture infective dose) of HIV. Immediately, after virus infection, 100 μl of the cell suspension was brought into each well of a flat-bottomedmicrotiter tray containing various concentrations of the test compounds. After a 4 or 5 day incubation at 37° C., the number of viable cells was determined by the 3-(4,5-dimethylthiazol-2-yl)-2,5-diphenyltetrazoliumbromide (MTT) method, as disclosed in J. Virol. Methods, 20, 309 (1988).
ED50 : Effective concentration for the inhibition of the
proliferation of HIV by 50%

[1] = cytotoxicity: viability of mock-infected MT-4 host cells (MTT method); format: cell-based; settings: human, mt-4 cells, read-out: CD50: Cytotoxic concentration that causes death of cells by 50%
Experimental: The cytotoxicity of the compounds of the present invention was assessed in parallel with their antiviral activity. It was based on the viability of mock-infected host cells as determined by the MTT methods (se J. Virol. Methods, 20, 309 (1988)).
CD50 : Cytotoxic concentration that causes death of cells by 50%

SMILES	EC50 (HIV)	S.I.: Selectivity index (CD50/ED50) (HIV)	CC50 [1]
CCc1c(Cc2cc(C)cc(C)c2)n(CC#Cc2ccccc2)c(=O)[nH]c1=O [Example 40, 1-(3-phenyl-2-propynyl)-5-ethyl-6-(3,5-dimethylbenzyl)-2,4-pyrimidinedione]	< 0.009 µg/mL	> 557	5.02 µg/mL (≈ 13.5 µM)
C/C=C/Cn1c(Cc2cc(C)cc(C)c2)c(C(C)C)c(=O)[nH]c1=O [Example 41]	0.01 µg/mL (≈ 0.0306 µM)	> 2,104	21 µg/mL (≈ 64.5 µM)
Cc1cc(C)cc(Cc2c(C(C)C)c(=O)[nH]c(=O)n2CC#Cc2ccccc2)c1 [Example 42, 1-(3-phenyl-2-propynyl)-5-isopropyl-6-(3,5-dimethylbenzyl)-2,4-pyrimidinedione]	< 0.009 µg/mL	> 824	7.42 µg/mL (≈ 19.2 µM)
C=CCn1c(C(=O)c2cc(C)cc(C)c2)c(CC)c(=O)[nH]c1=O [Example 43, 1-allyl-5-ethyl-6-(3,5-dimethylbenzoyl)-2,4-pyrimidinedione]	< 0.17 µg/mL	> 320	54.5 µg/mL (≈ 175 µM)
C/C=C/Cn1c(C(=O)c2cc(C)cc(C)c2)c(CC)c(=O)[nH]c1=O [Example 44]	< 0.01 µg/mL	> 3,439	34.4 µg/mL (≈ 105 µM)
CCc1c(C(=O)c2cc(C)cc(C)c2)n(C/C=C/c2ccccc2)c(=O)[nH]c1=O [Example 45, 1-(trans-cinnamyl)-5-ethyl-6-(3,5-dimethylbenzoyl)-2,4-pyrimidinedione]	< 0.009 µg/mL	> 663	5.97 µg/mL (≈ 15.4 µM)
CC/C=C/Cn1c(C(=O)c2cc(C)cc(C)c2)c(CC)c(=O)[nH]c1=O [Example 46]	< 0.009 µg/mL	> 1,015	9.14 µg/mL (≈ 26.8 µM)
CCc1c(C(=O)c2cc(C)cc(C)c2)n(C/C=C/CCl)c(=O)[nH]c1=O [Example 47]	< 0.009 µg/mL	> 774	6.7 µg/mL (≈ 18.6 µM)
C#CCn1c(C(=O)c2cc(C)cc(C)c2)c(CC)c(=O)[nH]c1=O [Example 48, 1-propargyl-5-ethyl-6-(3,5-dimethylbenzoyl)-2,4-pyrimidinedione]	< 0.39 µg/mL	> 93	36.4 µg/mL (≈ 117 µM)
CC#CCn1c(C(=O)c2cc(C)cc(C)c2)c(CC)c(=O)[nH]c1=O [Example 49, 1-(2-butynyl)-5-ethyl-6-(3,5-dimethylbenzoyl)-2,4-pyrimidinedione]	< 0.032 µg/mL	> 162	5.2 µg/mL (≈ 16 µM)
CCc1c(C(=O)c2cc(C)cc(C)c2)n(CC#Cc2ccccc2)c(=O)[nH]c1=O [Example 50, 1-(3-phenyl-2-propynyl)-5-ethyl-6-(3,5-dimethylbenzoyl)-2,4-pyrimidinedione]	< 0.009 µg/mL	> 482	4.34 µg/mL (≈ 11.2 µM)
C/C=C/Cn1c(C(=O)c2cc(C)cc(C)c2)c(C(C)C)c(=O)[nH]c1=O [Example 51]	< 0.01 µg/mL	> 2,473	22.3 µg/mL (≈ 65.4 µM)
Cc1cc(C)cc(C(=O)c2c(C(C)C)c(=O)[nH]c(=O)n2C/C=C/c2ccccc2)c1 [Example 52]	< 0.009 µg/mL	> 1,083	9.75 µg/mL (≈ 24.2 µM)
CC/C=C/Cn1c(C(=O)c2cc(C)cc(C)c2)c(C(C)C)c(=O)[nH]c1=O [Example 53]	< 0.009 µg/mL	> 665	5.99 µg/mL (≈ 16.9 µM)
COC(=O)/C=C/Cn1c(C(=O)c2cc(C)cc(C)c2)c(C(C)C)c(=O)[nH]c1=O [Example 54]	< 0.01 µg/mL	> 3,005	30.1 µg/mL (≈ 78.2 µM)
CC#CCn1c(C(=O)c2cc(C)cc(C)c2)c(C(C)C)c(=O)[nH]c1=O [Example 55, 1-(2-butynyl)-5-isopropyl-6-(3,5-dimethylbenzoyl)-2,4-pyrimidinedione]	< 0.32 µg/mL	> 130	41.7 µg/mL (≈ 123 µM)
Cc1cc(C)cc(C(=O)c2c(C(C)C)c(=O)[nH]c(=O)n2CC#Cc2ccccc2)c1 [Example 56, 1-(3-phenyl-2-propynyl)-5-isopropyl-6-(3,5-dimethylbenzoyl)-2,4-pyrimidinedione]	< 0.009 µg/mL	> 75.1	6.76 µg/mL (≈ 16.9 µM)
C=CCn1c(Oc2cc(C)cc(C)c2)c(CC)c(=O)[nH]c1=O [Example 57, 1-allyl-5-ethyl-6-(3,5-dimethylphenoxy)-2,4-pyrimidinedione]	< 0.32 µg/mL	> 132	42.4 µg/mL (≈ 141 µM)

SMILES	EC50 (HIV)	S.I.: Selectivity index (CD50/ED50) (HIV)	CC50 [1]
CC#CCn1c(Oc2cc(C)cc(C)c2)c(CC)c(=O)[nH]c1=O [Example 58]	< 0.34 µg/mL	> 143	48.9 µg/mL (≈ 157 µM)
CCc1c(Oc2cc(C)cc(C)c2)n(C/C=C/c2ccccc2)c(=O)[nH]c1=O [Example 59, 1-(trans-cinnamyl)-5-ethyl-6-(3,5-dimethylphenoxy)-2,4-pyrimidinedione]	< 0.23 µg/mL	> 167	38.6 µg/mL (≈ 102 µM)
C#CCn1c(Oc2cc(C)cc(C)c2)c(CC)c(=O)[nH]c1=O [Example 60, 1-propargyl-5-ethyl-6-(3,5-dimethylphenoxy)-2,4-pyrimidinedione]	< 0.62 µg/mL	> 25	15.8 µg/mL (≈ 52.8 µM)
CCc1c(Oc2cc(C)cc(C)c2)n(CC#Cc2ccccc2)c(=O)[nH]c1=O [Example 61, 1-(3-phenyl-2-propynyl)-5-ethyl-6-(3,5-dimethylphenoxy)-2,4-pyrimidinedione]	< 0.009 µg/mL	> 1,033	9.3 µg/mL (≈ 24.8 µM)
CC/C=C/Cn1c(Oc2cc(C)cc(C)c2)c(CC)c(=O)[nH]c1=O [Example 62]	< 0.032 µg/mL	> 251	8.05 µg/mL (≈ 24.5 µM)
CCc1c(Oc2cc(C)cc(C)c2)n(C/C=C/C(=O)OC)c(=O)[nH]c1=O [Example 63]	< 0.032 µg/mL	> 224	7.17 µg/mL (≈ 20 µM)
C/C=C/Cn1c(Oc2cc(C)cc(C)c2)c(C(C)C)c(=O)[nH]c1=O [Example 64]	< 0.009 µg/mL	> 1,098	9.89 µg/mL (≈ 30.1 µM)
Cc1cc(C)cc(Oc2c(C(C)C)c(=O)[nH]c(=O)n2C/C=C/c2ccccc2)c1 [Example 65]	< 0.009 µg/mL	> 893	8.04 µg/mL (≈ 20.6 µM)
COC(=O)/C=C/Cn1c(Oc2cc(C)cc(C)c2)c(C(C)C)c(=O)[nH]c1=O [Example 66]	< 0.32 µg/mL	> 245	78.6 µg/mL (≈ 211 µM)
Cc1cc(C)cc(Oc2c(C(C)C)c(=O)[nH]c(=O)n2CC#Cc2ccccc2)c1 [Example 67, 1-(3-phenyl-2-propynyl)-5-isopropyl-6-(3,5-dimethylphenoxy)-2,4-pyrimidinedione]	< 0.009 µg/mL	> 844	7.6 µg/mL (≈ 19.6 µM)
C/C=C\Cn1c(C(=O)c2cc(C)cc(C)c2)c(CC)c(=O)[nH]c1=O [Example 68, 1-(cis-2-butenyl)-5-ethyl-6-(3,5-dimethylbenzoyl)-2,4-pyrimidinedione]	< 0.032 µg/mL	> 162	8.21 µg/mL (≈ 25.2 µM)
CCc1c(C(=O)c2cc(C)cc(C)c2)n(C/C=C\c2ccccc2)c(=O)[nH]c1=O [Example 69, 1-(cis-cinnamyl)-5-ethyl-6-(3,5-dimethylbenzoyl)-2,4-pyrimidinedione]	< 0.032 µg/mL	> 270	8.67 µg/mL (≈ 22.3 µM)
C/C=C\Cn1c(Oc2cc(C)cc(C)c2)c(CC)c(=O)[nH]c1=O [Example 70, 1-(cis-2-butenyl)-5-ethyl-6-(3,5-dimethylphenoxy)-2,4-pyrimidinedione]	< 0.01 µg/mL	> 7,381	73.8 µg/mL (≈ 235 µM)
C/C=C\Cn1c(Oc2cc(C)cc(C)c2)c(C(C)C)c(=O)[nH]c1=O [Example 71, 1-(cis-2-butenyl)-5-isopropyl-6-(3,5-dimethylphenoxy)-2,4-pyrimidinedione]	< 0.0155 µg/mL	> 497	7.71 µg/mL (≈ 23.5 µM)
CCOC(=O)C=CCn1c(C(=O)c2cc(C)cc(C)c2)c(CC)c(=O)[nH]c1=O [Example 72, 1-(ethoxycarbonylallyl)-5-ethyl-6-(3,5-dimethylbenzoyl)-2,4-pyrimidinedion]	< 0.01 µg/mL	> 685	6.85 µg/mL (≈ 17.8 µM)
CCc1c(C(=O)c2cc(C)cc(C)c2)n(CC=CC(=O)OC(C)C)c(=O)[nH]c1=O [Example 73, 1-(isopropoxycarbonylallyl)-5-ethyl-6-(3,5-dimethylbenzoyl)-2,4-pyrimidinedione]	< 0.01 µg/mL	> 485	4.85 µg/mL (≈ 12.2 µM)
Cc1cc(C)cc(C(=O)c2c(C(C)C)c(=O)[nH]c(=O)n2C/C=C/CN=[N+]=[N-])c1 [Example 74, 1-(4-azido-trans-2-butenyl)-5-isopropyl-6-(3,5-dimethylbenzoyl)-2,4-pyrimidinedione]	< 0.009 µg/mL	> 954	8.59 µg/mL (≈ 22.5 µM)
CC(=O)OC/C=C/Cn1c(C(=O)c2cc(C)cc(C)c2)c(C(C)C)c(=O)[nH]c1=O [Example 75, 1-(4-acetoxy-trans-2-butenyl)-5-isopropyl-6-(3,5-dimethylbenzoyl)-2,4-pyrimidinedione]	< 0.009 µg/mL	> 6,487	58.4 µg/mL (≈ 147 µM)
